Source: PMC3003687, “α-Galactosylceramide Analogs with Weak Agonist Activity for Human iNKT Cells Define New Candidate Anti-Inflammatory Agents” (PLoS ONE, 2010)

Molecular target: T1, hCD1d (Homo sapiens, UniProt P15813)
T1 construct: we generated soluble and fluorescent tetrameric hCD1d molecules loaded with each of the glycolipid analogs; made in house
Assay: Loading of hCD1d tetramers with variable glycolipid to CD1d ratios
Format: binding
Conditions: 20 nM tetramers, 25 to 1000 fold molar excess of glycolipid to hCD1d, HDD3 clone
Description: To characterize in more detail the iNKT cell TCR recognition of αGalCer analogs presented by human CD1d, we generated soluble and fluorescent tetrameric hCD1d molecules loaded with each of the glycolipid analogs. […] This was similar to the previously reported failure of mouse CD1d tetramer loaded with lysosulfatide to bind detectably to murine non-invariant and sulfatide specific NKT cells, despite a clear reactivity to this lipid upon presentation by APCs; [40]. […] To quantitate their binding avidities to iNKT cell TCRs, we used titration of analog-loaded hCD1d tetramers to determine equilibrium dissociation constants (KD), which are inversely proportional to avidity (Figure 3A and 3B).
Figure 3 Characterization of human iNKT cell TCR interactions with analog-loaded tetramers. (A) iNKT cell clones were stained with titrated amounts of hCD1d tetramers loaded with the indicated glycolipids (abbreviations as in legend to Figure 1), and the measured MFI values are plotted for selected glycolipids. (B) The equilibrium dissociation constants (KD, inversely proportional to TCR avidity) were determined as the concentrations of tetramers required to yield 50% of maximal binding. Data shown were obtained using the CD4^+ iNKT cell clone HDD3, and similar results (not shown) were obtained with a second CD4^+ clone (HDD11) and a CD4^−8^− double negative iNKT cell clone (HDE3). (C) Analysis of iNKT cell clones labeled with 20 nM of hCD1d tetramers which were loaded with variable excesses of analog to constant hCD1d (25 to 1000 fold molar excess of glycolipid to hCD1d protein). The measured MFI values were normalized as the percent of the maximum staining intensity obtained with each analog loaded tetramer. Data presented were generated with HDD3 (CD4+) iNKT cell clone, and similar results (not shown) were obtained with HDE3 (DN) clone.

T1 sequence (P15813 20-301 limits assumed): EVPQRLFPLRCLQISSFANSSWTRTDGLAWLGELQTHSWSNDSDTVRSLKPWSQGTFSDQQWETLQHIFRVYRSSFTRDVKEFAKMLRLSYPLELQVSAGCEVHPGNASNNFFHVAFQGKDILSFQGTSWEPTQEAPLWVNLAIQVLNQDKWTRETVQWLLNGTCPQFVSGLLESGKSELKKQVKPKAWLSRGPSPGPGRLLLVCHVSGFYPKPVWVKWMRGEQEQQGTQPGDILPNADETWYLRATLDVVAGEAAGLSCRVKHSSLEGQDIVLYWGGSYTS
T1 sequence (P61769 21-119 partner): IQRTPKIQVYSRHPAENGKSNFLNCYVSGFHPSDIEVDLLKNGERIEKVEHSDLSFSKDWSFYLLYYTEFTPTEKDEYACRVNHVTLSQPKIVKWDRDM

## CCCCCCCCCCCCCCCCCCCCCCCCCC(=O)N[C@@H](CO[C@H]1O[C@H](CO)[C@H](O)[C@H](O)[C@H]1O)[C@H](O)[C@H](O)CCCCCCCCCCCCCC [KRN7000, reference compound]
  lipid excess at which tetramers were efficiently loaded: 25–50 fold
